Patent publication US20080280890A1, “HYDROXYLAMINE COMPOUNDS AND METHODS OF THEIR USE” (priority 2007, published 2008)
Where “and” joins values, the source holds several entries; their conditions need not be identical. Identical values can stand only once. Like-named read-outs stand apart in the source and are kept apart here.

Key:
lipid peroxidation = test: Lipid peroxidation inhibition (method of Ohkawa); type: biochemical; conditions: for Lipid Peroxidation % Inhibition: 10 uM
[1] = tested on: Angiogenesis in CAM model; test: Neovascularization on the CAM (chick chorioallantoic membrane model of angiogenesis); type: in vivo, chicken; conditions: for CAM data % Inhibition / Percent inhibition of angiogenesis in CAM model at 30 ug: 30 ug; for Percent inhibition of angiogenesis in CAM model at 30 ug: unit assumed
Procedure, shortened: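 Chick CAM of 10-day embryos given filter disks pretreated with cortisone acetate and saturated with bFGF (1 μg/ml) or other pro-angiogenic factors. After 24-48 hr, 10-25 ul test agent was injected intravenously or applied topically. After 3 days at 37° C, vessel branch points under each disk were counted at 50× (8 CAMs/group) and converted to % inhibition relative to positive and negative controls.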

TNF-alpha = test: LPS induced TNF-alpha inhibition (whole blood / THP-1 cells, ELISA); type: cell-based, human
Method: Following incubation with LPS, PBS was added (800 uL) and samples were spun for 10 minutes at 1500 g. […] TNFα protein concentrations were measured using R&D Systems high sensitivity ELISA kit.
The lipid peroxidation assay method of Ohkawa, H.; Ohishi, N.; Yaki, K. Anal. Biochem. 1979, 95, 351 was used to evaluate TNF α. […] Cells were induced with 25 ng/mL LPS for another 3 hrs. Cells were collected and spun at 1500 g for 10 minutes. Supernatant was collected and analyzed for TNFα.
OT-551 was used in both native form and in the form of nanoparticles. […] Other nitrogenous heterocyclic species of the invention are expected to show similar improvement in efficacy when disposed in nanoparticulate form.

[2] = tested on: Human neuroblastoma SKN-SH cells, resistant to doxorubicin; test: Chemoresistance: cancer cell viability (MTT) in presence or absence of doxorubicin; type: cell-based; conditions: for Mean OD (×10^−3), cancer cell viability: compound 50 ug/mL, MTT
Procedure, shortened: (§1)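 Doxorubicin-resistant SKN-SH neuroblastoma cells, selected by stepwise exposure to 10^−9–10^−6 M doxorubicin over 3 months, in DMEM/10% FBS at 37 °C. Treated with doxorubicin alone or with hydroxylamine for 72 h (96 h in one variant). MTT read at 570 nm, survival relative to untreated cells.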

[3] = tested on: Human neuroblastoma SKN-SH cells; test: Chemoresistance: cancer cell viability (MTT) in presence or absence of doxorubicin; type: cell-based; conditions: compound alone; P<0.001
Procedure, shortened: as §1

[4] = tested on: bFGF (FGF2) stimulated angiogenesis in CAM model; test: Angiogenesis in the CAM model using bFGF stimulus; type: in vivo, chicken; conditions: FGF2 (1 ug) + 30 ug injected
Method: The number of vessel branch points contained in a circular region equal to the area of a filter disk was counted for each section. Percent inhibition data are expressed as the quotient of the experimental value minus the negative control value divided by the difference between the positive control value and the negative control value. One image was counted in each CAM preparation, and findings from eight CAM preparations were analyzed for each treatment condition. In addition, each experiment was performed three times. The resulting angiogenesis index is the mean ± SEM (Standard Error of Measurement) of new branch points in each set of treatment. Statistical analysis of blood vessel branching patterns are performed by 1-way analysis of variance (ANOVA) comparing experimental with corresponding control groups. Statistical significance differences are assessed at P value of <0.05.
Assessment of Angiogenesis in the CAM Model Using bFGF Stimulus.
The CAM model protocol was modified to include stimulus with bFGF. The effect of injected OT 551 was assayed.

[5] = Ocular permeability and retinal levels after topical administration; type: in vivo

| Molecule | % Lipid Peroxidation inhibition (at 1 uM) (lipid peroxidation) | Lipid Peroxidation % Inhibition (lipid peroxidation) | Percent inhibition of angiogenesis in CAM model at 30 ug [1] | Mean OD (×10^−3), cancer cell viability ([2]; Dox. 10^−6 M present (+)) | Mean OD (×10^−3), cancer cell viability ([2]; Dox. absent (−)) | melting point | other results |
| --- | --- | --- | --- | --- | --- | --- | --- |
| 1-hydroxyl-4-(4-(2,2,6,6-tetramethylpiperidin-1-hydroxyl-4-yloxy)-1,2,5-thiadiazol-3-yloxy)-2,2,6,6-tetramethylpiperidine [Compound 14] | 88.6% | 95.2% | 75.1% |  |  |  | CAM data % Inhibition [1]: 95.2%; Mean Percent Inhibition of TNF-alpha using 5 ng/mL LPS (TNF-alpha; compound 10 uM, 5 ng/mL LPS): 63 ± 1%; IC50 (TNF-alpha; read-out: TNFalpha IC50): 11.4 µM |
| CC(=O)NC1CC(C)(C)N(O)C(C)(C)C1.Cl [Compound 2, 1-hydroxy-4-acetamido-2,2,6,6-tetramethylpiperidine] |  | 81.0% | 76% | 249.25 ×10^−3 | 496.33 ×10^−3 | 180.5 °C (dec.) |  |
| CC1(C)CC(Oc2nsnc2N2CCOCC2)CC(C)(C)N1O.Cl [Compound 4, 4-(4-(2,2,6,6-tetramethylpiperidin-1-hydroxyl-4-yloxy)-1,2,5-thiazol-3-yl)morpholine] | 87.0% | 91.4% | 92.8% | 88.00 ×10^−3 | 468.50 ×10^−3 |  | killing of doxorubicin-sensitive cells [3]: enhanced the killing; reversal of drug resistance ([2]; combined with doxorubicin, osteosarcoma, breast cancer, and neuroblastoma): strong ability to reverse drug resistance; killing of doxorubicin-resistant cells ([2]; compound alone, P<0.001): enhanced the killing |
| CC1(C)CC(=O)CC(C)(C)N1O [Compound 5, 1-Hydroxy-2,2,6,6-tetramethyl-piperidin-4-one] | 71.0% | 86.3% |  | 245.50 ×10^−3 | 556.50 ×10^−3 |  | inhibition at 10 µM (TNF-alpha; Homo sapiens, THP-1, read-out: Mean Percent Inhibition of TNF-alpha using 5 ng/mL LPS): 66 ± 7%; IC50 (TNF-alpha; Homo sapiens, THP-1, read-out: TNFalpha IC50 (uM)): 22.2 µM |
| CC1C(O)C(C)C(C)(C)N(O)C1(C)C.Cl (centres unmarked) [Compound 6, 2,2,3,5,6,6-Hexamethyl-piperidine-1,4-diol] | 70.5% | 89.0% | 40.4% | 185.25 ×10^−3 | 367.00 ×10^−3 | 191.5 °C (dec.) |  |
| CC1(C)CC(NC(=O)N2CCOCC2)CC(C)(C)N1O.Cl [Compound 11, N-(2,2,6,6-tetramethylpiperidin-1-hydroxyl-4-yl)morpholine-4-carboxamide] |  | 82.7% | 71% | 267.25 ×10^−3 | 470.25 ×10^−3 | 158.1 °C (dec.) |  |
| CC1(C)c2ccc(C(=O)O)cc2C(C)(C)N1O.Cl [Compound 15, 1,1,3,3-tetramethylisoindolin-2-hydroxyl-5-carboxylic acid] | 88.0% | 94.6% | 71.8% |  |  | 225.5 °C (dec.) |  |
| CC1(C)COCC(C)(C)N1O.Cl [Compound 20, 3,3,5,5-1-hydroxy-tetramethylmorpholine] |  | 90.2% | 78.6% | 107.5 ×10^−3 | 515.50 ×10^−3 | 184.6 °C (dec.) |  |
| CC1(C)C=C(C(N)=O)C(C)(C)N1O [Compound 23, 2,5-dihydro-2,2,5,5-tetramethyl-1H-pyrrole-3-carboxamide-1-hydroxy] |  |  | 48.8% | 416.25 ×10^−3 | 1432.50 ×10^−3 |  | IC50 (TNF-alpha; read-out: TNFalpha IC50): 87.4 µM |
| CC1(C)CC(Oc2nsnc2C#N)CC(C)(C)N1O [Compound 45] | 91.5% |  | 50% | 276.50 ×10^−3 | 1063.33 ×10^−3 |  |  |
| Cc1nsnc1OCC1=CC(C)(C)N(O)C1(C)C [Compound 47, 3-((1-hydroxy-2,5-dihydro-2,2,5,5-tetramethyl-1H-pyrrol-3-yl)methoxy)-4-methyl-1,2,5-thiadiazole] | 60.3% |  |  | 261.00 ×10^−3 | 1168.33 ×10^−3 |  | IC50 (TNF-alpha; Homo sapiens, THP-1, read-out: TNFalpha IC50): ≥ 100 µM |
| CC1(C)CC(OC(=O)C2CC2)CC(C)(C)N1O.Cl [OT-551 HCl] |  |  |  |  |  |  | % Inhibition ± SEM [4]: 74 ± 4%; Branch pts ± SEM [4]: 87 ± 3; levels in the retina ([5]; after topical administration): good levels; permeability through the cornea ([5]; in vivo): good permeability; CAM data % Inhibition [1]: 75.2 ± 9.7% and 79.6 ± 7.9% and 74 ± 4%; Mean Percent Inhibition of TNF-alpha using 5 ng/mL LPS (TNF-alpha; compound 10 uM, 5 ng/mL LPS): 68 ± 6% |
| CC1(C)CC(O)CC(C)(C)N1O [TEMPOL-H, 2,2,6,6-tetramethylpiperidine-1,4-diol, reference compound] |  |  |  |  |  |  | effect of H2O2 in the CAM model ([1]; H2O2 induced angiogenesis, FIG. 1): dose dependent effect; inhibition at 10 µM (TNF-alpha; Homo sapiens, THP-1, compound 10 uM, 5 ng/mL LPS, read-out: Mean Percent Inhibition of TNF-alpha using 5 ng/mL LPS): 74 ± 8% |
